{"source": "ChEMBL document CHEMBL1201862", "about": "“PubChem BioAssay data set” (2004)", "key": {"Major prion protein": {"target": "Major prion protein (Homo sapiens, UniProt P04156)", "assay_type": "functional, cell-based"}, "cells [1]": {"assay": "cells"}, "[2]": {"assay": "P. falciparum Dd2 growth inhibitors, dose response, SYBR Green, cherry-picked samples (AID 1159567)", "assay_type": "functional, cell-based"}, "[3]": {"assay": "Dd2 malaria parasite growth inhibition potency – SYBR Green, dry powder samples, dose response (AID 1159566);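 further: potency for growth inhibition with lower SYBR green DNA signal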", "assay_type": "functional, cell-based"}, "[4]": {"assay": "growth inhibition of PfATP4-mutant resistant parasites – NITD609-resistant line, SYBR Green, dry powder, dose response (AID 1159571);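 further: parasites synchronized at ring stage by sorbitol before testing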", "assay_type": "functional, cell-based"}, "[5]": {"assay": "growth inhibition of yeast DHODH-expressing 3D7 parasites – SYBR Green, dry powder samples, dose response (AID 1159570);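 further: parasite growth measured after 72 hours of compound exposure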", "assay_type": "functional, cell-based"}, "[6]": {"assay": "toxicity to human HepG2 hepatoma cells – cell-based, plate reader, dry powder samples, cytotoxicity control, dose response (AID 1159569);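 further: inhibitor potency with signal falling toward the positive control level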", "assay_type": "functional"}, "Prothrombin": {"target": "Prothrombin (Homo sapiens, UniProt P00734)", "assay": "Thrombin 1536 HTS Dose Response Confirmation. [Related pubchem assays: 1046 (Thrombin 1536 HTS; hits were confirmed in this assay)]", "assay_type": "functional"}, "[7]": {"assay": "NIH3T3 cell viability loss – ATP luminescence, mouse fibroblasts, counter-screen, dose response (AID 2010);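 further: cells exposed to compound for about 90 hours before reading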", "assay_type": "functional, cell-based"}, "[8]": {"assay": "Trypanosoma cruzi growth suppression in host cells – NIH3T3 host cells, beta-gal luminescence, confirmation (AID 2044);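 further: luminescent beta-galactosidase reporter signal from transgenic T. cruzi replicating inside host cells; inhibitors lower the luminescence signal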", "assay_type": "functional, cell-based"}, "Protein Tat": {"target": "T1, Protein Tat (Human immunodeficiency virus type 1 group M subtype B (isolate HXB2)(HIV-1), UniProt P04608)", "T1 sequence (P04608 whole entry)": "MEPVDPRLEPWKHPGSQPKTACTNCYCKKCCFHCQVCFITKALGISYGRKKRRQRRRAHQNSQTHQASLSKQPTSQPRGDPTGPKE", "assay_type": "functional"}, "Large T antigen": {"target": "Large T antigen (Simian virus 40, UniProt P03070)", "assay_type": "functional, Betapolyomavirus macacae"}, "[9]": {"assay": "viability loss in THP-1 monocytes – THP-1 cells, cytotoxicity control for Vif-APOBEC3G degradation inhibitor project, dose response (AID 1117359)", "assay_type": "functional", "details": "THP-1"}, "Escherichia coli": {"tested_on": "Escherichia coli", "assay": "microbe, parasite or virus in culture"}, "cells [10]": {"assay": "cells", "remark": "listed apart in the source"}, "[11]": {"target": "T2, Heat shock factor protein 1 (Mus musculus, UniProt P38532)", "T2 sequence (P38532 whole entry)": "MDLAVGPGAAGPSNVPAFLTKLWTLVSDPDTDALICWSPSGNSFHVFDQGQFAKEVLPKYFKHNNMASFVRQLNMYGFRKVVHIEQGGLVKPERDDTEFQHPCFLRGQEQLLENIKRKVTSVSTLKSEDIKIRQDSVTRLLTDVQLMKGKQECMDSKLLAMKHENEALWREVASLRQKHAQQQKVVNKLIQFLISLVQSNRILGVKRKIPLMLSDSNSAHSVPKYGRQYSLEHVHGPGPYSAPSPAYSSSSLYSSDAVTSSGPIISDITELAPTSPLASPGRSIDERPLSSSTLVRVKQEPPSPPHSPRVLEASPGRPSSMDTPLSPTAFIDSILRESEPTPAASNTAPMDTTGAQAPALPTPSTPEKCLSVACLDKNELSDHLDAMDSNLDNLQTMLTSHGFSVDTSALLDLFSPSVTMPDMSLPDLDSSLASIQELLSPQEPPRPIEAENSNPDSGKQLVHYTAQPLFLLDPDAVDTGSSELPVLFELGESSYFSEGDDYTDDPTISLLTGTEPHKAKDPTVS", "assay": "decrease of HSF1-responsive luciferase luminescence – cell-based, NIH3T3, dose retest, confirmation (AID 2382);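 further: NIH3T3 fibroblasts with HSF1-driven luciferase reporter stressed by proteasome inhibitor MG132; luminescence from HSF1-driven luciferase expression after 8 hours of MG132 stress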", "assay_type": "functional"}, "[12]": {"target": "T3, Long-chain-fatty-acid--AMP ligase FadD28 (Mycobacterium tuberculosis, UniProt P9WQ59)", "T3 sequence (P9WQ59 whole entry)": "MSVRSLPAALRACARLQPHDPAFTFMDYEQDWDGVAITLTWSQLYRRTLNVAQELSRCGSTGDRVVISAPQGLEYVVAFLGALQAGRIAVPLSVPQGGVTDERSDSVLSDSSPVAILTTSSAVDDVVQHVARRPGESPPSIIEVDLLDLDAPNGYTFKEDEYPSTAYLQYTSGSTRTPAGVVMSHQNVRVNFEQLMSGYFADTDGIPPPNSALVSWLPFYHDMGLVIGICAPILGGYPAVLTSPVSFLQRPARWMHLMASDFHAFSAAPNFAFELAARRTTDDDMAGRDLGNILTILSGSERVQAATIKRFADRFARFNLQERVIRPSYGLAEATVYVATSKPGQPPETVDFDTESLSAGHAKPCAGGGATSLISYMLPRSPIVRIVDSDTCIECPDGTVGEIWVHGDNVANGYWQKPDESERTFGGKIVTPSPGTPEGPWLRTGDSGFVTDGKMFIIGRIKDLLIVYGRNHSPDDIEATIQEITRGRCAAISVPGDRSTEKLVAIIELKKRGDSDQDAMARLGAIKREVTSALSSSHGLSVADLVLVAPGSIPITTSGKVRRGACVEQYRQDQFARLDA", "assay": "Fluorescence polarization aasay to screen for inhibitors that compete for the binding of FadD28 to a bisubstrate Measured in Biochemical System Using Plate Reader - 2147-01_Inhibitor_Dose_CherryPick_Activity.", "assay_type": "functional, Mycobacterium tuberculosis H37Rv"}, "[13]": {"assay": "cytotoxicity toward Colo320 cells – cell-based, CellTiter-Glo luminescence, IC50, dose response (AID 1117334)", "assay_type": "functional", "details": "COLO 320"}, "[14]": {"assay": "SNU-C1 cell viability reduction, dose response, CellTiter-Glo luminescence (AID 1117323)", "assay_type": "functional, cell-based"}, "[15]": {"assay": "Reduced DLD-1 viability, concentration-response, CellTiter-Glo luminescence (AID 1117352)", "assay_type": "functional"}, "[16]": {"assay": "HCT116 cell viability decrease, GSK3B pretreatment – CellTiter-Glo, IC50, dose response (AID 1117339)", "assay_type": "functional", "details": "HCT-116"}, "[17]": {"assay": "cytotoxicity toward HCT116 cells – cell-based, CellTiter-Glo luminescence, IC50, dose response (AID 1117332)", "assay_type": "functional", "details": "HCT-116"}, "[18]": {"assay": "cytotoxicity toward HT-29 cells – cell-based, CellTiter-Glo luminescence, IC50, dose response (AID 1117330)", "assay_type": "functional"}, "[19]": {"assay": "CellTiter-Glo luminescence survival assay, SW480 colon tumor line, concentration-response curve, half-maximal inhibitory concentration (AID 1117338)", "assay_type": "functional"}, "[20]": {"assay": "RKO cell viability reduction, dose response, CellTiter-Glo luminescence (AID 1117322)", "assay_type": "functional"}}, "note": "Active and inactive are the calls of the source."}
{"smiles": "COc1ccc(-c2nc3c(C)cc(Br)cn3c2Cc2cccc(Cl)c2)cc1OC", "values": [{"measurement": "IC50", "setting": "Major prion protein", "result": "7.52 µM (active)"}, {"measurement": "IC50", "setting": "cells [1]", "result": "> 138 µM (inactive)"}]}
{"smiles": "O=C(Nc1cccc(F)c1)N1CCCCN2[C@@H](CO)[C@H](c3ccc(C#Cc4cccnc4)cc3)[C@@H]2C1", "values": [{"measurement": "AC50", "setting": "[2]", "result": "0.606 µM (active)"}, {"measurement": "AC50", "setting": "[3]", "result": "0.368 µM (active)"}, {"measurement": "AC50", "setting": "[4]", "result": "0.425 µM (active)"}, {"measurement": "AC50", "setting": "[5]", "result": "0.247 µM (active)"}, {"measurement": "AC50", "setting": "[6]", "result": "28.4 µM (active)"}]}
{"smiles": "COc1ccc(N(C(=O)c2ccco2)S(=O)(=O)c2ccccc2)cc1", "values": [{"measurement": "IC50", "setting": "Prothrombin", "result": "4.64 µM (active)"}]}
{"smiles": "Cc1cc(C)c2c3c(sc2n1)C(c1cccc(F)c1)C(C#N)=C(N)O3", "note": "(configuration not stated)", "values": [{"measurement": "IC50", "setting": "Prothrombin", "result": "> 50 µM (not active)"}, {"measurement": "EC50", "setting": "[7]", "result": "> 30 µM (not active)"}, {"measurement": "EC50", "setting": "[8]", "result": "0.191 µM (active)"}]}
{"smiles": "Cc1c(NC(=O)CN2CCN(c3ccc(O)cc3)CC2)c(=O)n(-c2ccccc2)n1C", "values": [{"measurement": "IC50", "setting": "Protein Tat", "result": "> 100 µM (active)"}, {"measurement": "IC50", "setting": "Large T antigen", "result": "13.7 µM (active)"}, {"measurement": "CC50", "setting": "[9]", "result": "> 40 µM (active)"}, {"measurement": "AC50", "setting": "Escherichia coli", "result": "38.1 µM (active)"}]}
{"smiles": "OC1CCN(Cc2cccc(Oc3ccccc3)c2)CC1", "values": [{"measurement": "EC50", "setting": "cells [10]", "result": "0.073 µM (active)"}, {"measurement": "EC50", "setting": "[11]", "result": "> 195 µM (not active)"}, {"measurement": "EC50", "setting": "[7]", "result": "> 30 µM (not active)"}, {"measurement": "EC50", "setting": "[8]", "result": "< 0.1 µM (active)"}]}
{"smiles": "CCc1c(O)n(-c2ccccc2)c(SCC(=O)Nc2nc3ccccc3s2)nc1=O", "values": [{"measurement": "AC50", "setting": "[12]", "result": "> 100 µM (inactive)"}]}
{"smiles": "COc1ccc(S(=O)(=O)N2CCOCC2)cc1NC(=O)CSc1ncnc2ccccc12", "values": [{"measurement": "IC50", "setting": "Major prion protein", "result": "2.66 µM (active)"}, {"measurement": "IC50", "setting": "cells [1]", "result": "> 138 µM (inactive)"}]}
{"smiles": "COC(=O)c1ccc(COC(=O)CNS(=O)(=O)c2ccccc2)cc1", "values": [{"measurement": "IC50", "setting": "Prothrombin", "result": "> 50 µM (not active)"}]}
{"smiles": "CCCCCCCCCCCCCCCCC(C(=O)O)C(O)(CC(=O)O)C(=O)O", "note": "(configuration not stated)", "values": [{"measurement": "IC50", "setting": "[13]", "result": "1.36 µM (active)"}, {"measurement": "IC50", "setting": "[14]", "result": "1.36 µM (active)"}, {"measurement": "IC50", "setting": "[15]", "result": "4.28 µM (active)"}, {"measurement": "IC50", "setting": "[16]", "result": "4.34 µM (active)"}, {"measurement": "IC50", "setting": "[17]", "result": "8.68 µM (inactive)"}, {"measurement": "IC50", "setting": "[18]", "result": "4.1 µM (active)"}, {"measurement": "IC50", "setting": "[19]", "result": "1.2 µM (active)"}, {"measurement": "IC50", "setting": "[20]", "result": "3.48 µM (active)"}]}
{"smiles": "O=C(COC(=O)c1cccc(NS(=O)(=O)c2ccc(F)c(F)c2)c1)NC(=O)NC1CCCCC1", "values": [{"measurement": "AC50", "setting": "[12]", "result": "19.9 µM (active)"}]}
